Experimental data published in patent publication US6458840B2, “Use of valproic acid analog for the treatment and prevention of migraine and affective illness” (American Biogenetic Sciences, Inc., priority 1998, dated 2002).
Values joined by “and” are separate entries in the source; they are usually repeats but may differ in a detail not shown here. Identical values can stand only once. “Also recorded” adds a separate entry of the source.

Legend:
[1] = Plasma drug levels after treatment and kindling stimulation; type: in vivo, rat; conditions: same dose of both drugs, immediately after treatment and kindling stimulation; for Plasma Drug Levels, Average: average of 8 rats; for Plasma Drug Levels, individual rats: each line one rat (784-793)
Text: Since there were differences in potencies between both compounds, plasma was obtained from rats immediately after treatment and kindling stimulation during one dose experiment.

Rectal body temperature = type: in vivo, rat; conditions: for BODY TEMP., day of exper., 13′ post appl.: mean (X)
Experimental: Female Wistar rats (Harlan-Winkelmann, Borchen, Germany) were obtained at an age of 11-12 weeks (body weight 180-200 g). Female rats were employed because they are known to eliminate drugs less rapidly than do males, which was thought to be an advantage for drug potency studies. Rats were kept separately in plastic cages at controlled temperature (23° C.) and humidity (about 50 %) with a 12-h light cycle beginning at 7 a.m. They received standard diet (Altromin; Lage, F.R.G.), tap water and libitum. All drug injections were done in the afternoon at an ambient temperature of 23-25° C. The regular protocol started by taking the rats out of their individual cage, weighing them and joining them together on a table with six open plastic cages for better behavioral observations. Therefore animals were able to move from one cage to another and either to have social contact or to avoid it. After a short adaptation time of approximately 15 minutes, rectal body temperatures were recorded followed by drug or vehicle application.
Tests included open field observations, rotarod test and body temperature. Tests were always performed in the same manner in control and drug experiments at two different times, just before application of drug or vehicle and 13 minutes after application.
In addition to these quantitative estimations of neurological deficit, behavioral alterations observed after administration of 2-propyl-4-hexynoic acid and valproate noted in the cage and by placing the animals in an open field of 90-100 cm diameter. Muscle tone was estimated by palpation of the abdomen. The extent of deficits in behavior after administration of the compounds was determined by a rating system (Loscher et al. 1987). In short, animals were taken out of the cage, placed in an open field, observed for about 1 minute and rated separately for ataxia, abducted hindlimbs, reduced righting, flat body posture, circling, Straub tail, piloerection, hypolocomotion and hyperlocomotion (abdominal muscle tone was evaluated by palpation at the end of the period of observation). All other parameters except ataxia were scored from 0 to 3: 0-absent; 1-equivocal; 2-present; 3- intense. For ataxia (06): 1 -slight ataxia in hind-legs (tottering of the hind quarters); 2-more pronounced ataxia with dragging of hind legs; 3-further increase of ataxia and more pronounced dragging of hind legs; 4-marked ataxia, animals lose balance during forward locomotion; 5- very marked ataxia with frequent loss of balance during forward locomotion; 6-permanent loss of righting reflexes, but animal still attempts to move forward. Rectal body temperature was measured by an electronic thermometer. Body weight of the animals was recorded once daily before drug injection. Significance of differences in behavior between pre-drug and post-drug data determined in the same group of animals was calculated by the Wilcoxon signed rank test for paired replicates and for body temperature by Student's paired t-test (SigmaStat for Windows, version 1.0). Differences in body temperature were always compared only within the experimental day with the pre-drug time as control to one post-drug time.

PTZ induced seizures = conditions: literature / earlier application; cited from earlier work

Row | SMILES | Plasma Drug Levels, Average [1] [µg/mL] | Plasma Drug Levels, individual rats [1] | BODY TEMP., day of exper., 13′ post appl. (Rectal body temperature; 50 mg/kg i.p.) [°C] | BODY TEMP., day of exper., 13′ post appl. (Rectal body temperature; 75 mg/kg i.p.) [°C] | BODY TEMP. (° C.) day of exper. 13′ post appl. (Rectal body temperature; 200 mg/kg, 13′ post appl., mean of 8 rats, ante appl. 38.68) [°C] | body-temperatures, in words (Rectal body temperature; doses 50, 75, 100, 200 mg/kg i.p.) | antiepileptic effect in PTZ test, in words (PTZ induced seizures) | alterations in body-temperature, in words (Rectal body temperature; 100 mg/kg i.p.) | BODY TEMP., day of exper., 13′ post appl. (Rectal body temperature; 100 mg/kg i.p.) [°C] | BODY TEMP., day of exper., 13′ post appl. (Rectal body temperature; 200 mg/kg i.p.) [°C] | BODY TEMP., day of exper., 13′ post appl. (Rectal body temperature; 200 mg/kg i.p., listed as valproate) [°C]
1 | CC#CCC(CCC)C(=O)O (stereo not drawn) [2-propyl-4-hexynoic acid, 2-n-propyl-4-hexynoic acid] | 198.37 | 209.31 µg/mL and 201.34 µg/mL and 218.87 µg/mL and 154.89 µg/mL and 220.70 µg/mL and 180.10 µg/mL and 170.68 µg/mL and 225.95 µg/mL | 38.48 | 38.49 | 37.94 | maintained within the physiological range | effective antiepileptic with a longer duration of activity and greatly reduced sedative and teratogenic effects compared to valproic acid; also recorded: improved antiepileptic compared to valproic acid | – | – | – | –
2 | CCCC(CCC)C(=O)O [Valproate, valproic acid] | 182.26 | 197.82 µg/mL and 189.87 µg/mL and 168.89 µg/mL and 173.37 µg/mL and 205.44 µg/mL and 174.06 µg/mL and 157.83 µg/mL and 190.82 µg/mL | 38.82 | 38.55 | – | – | – | No alterations | 38.97 | 39.18 | 39.2
